This assay deals with transgenic ALS mice (tg G93R SOD1 mice). Kind of assay: Treatment studies in transgenic ALS mice: behavioral and motor tests (open field, SHIRPA, pole, hind-leg grip strength, rotarod, hind-leg spread) and histological analyses. It counts as in vivo. To be noted: two treatment studies. As to the method:
To analyze the anti-inflammatory effect of RD2RD2 as a potential therapeutic for treating ALS, two treatment studies were carried out in transgenic ALS mice (tg G93R SOD1 mice).
For orientation: The rotarod test checks motor coordination on a turning rod.

Where no end group is shown, it is not given here. [ ]: non-standard residue; d: D form.

Consider one substance from US20210087232A1, “D-ENANTIOMERIC PEPTIDES FOR ANTI-INFLAMMATORY TREATMENT OF AMYOTROPIC LATERAL SCLEROSIS (ALS) AND OTHER DISEASES DRIVEN BY NEURO-INFLAMMATION” (FORSCHUNGSZENTRUM JUELICH GMBH, priority 2018, published 2021).

Regarding “ptlhthnrrrrrptlhthnrrrrr ([dP][dT][dL][dH][dT][dH][dN][dR][dR][dR][dR][dR][dP][dT][dL][dH][dT][dH][dN][dR][dR][dR][dR][dR]) [RD2RD2]”, under “behavioral and motor tests”, the disease onset entry is “delays disease onset” and the disease progression result is “slows disease progression”. Also, under “histological analyses”, the inflammatory reactions entry was “reduces inflammatory reactions”.
